# Measured values taken from patent US8012471B2, “Screening and treatment methods using IGS5 enzymes of the metalloprotease family” (Abbott Healthcare Products B.V., priority 1999, dated 2011).
# “Also recorded” adds a separate entry of the source. Marks after values point to notes of the source that are not given here. Starred links: 1 amine or outer side, 2 acyl side, 3 side chain; linkers in the order of their positions; H or OH if unused. Non-standard residues stand in square brackets, D forms with d. No end group written: not given here. *: point of attachment. Dpa = quench label, O=C([C@H](CNc1ccc([N+](=O)[O-])cc1[N+](=O)[O-])N[*:1])[*:2]; Mca = COc1ccc2c(CC(=O)*)cc(=O)oc2c1
# Columns and labels:
# [1] = target: T1, IGS5 polypeptide (His6-tagged IGS5 ectodomain) (Homo sapiens, UniProt Q495T6, V306M); assay: Hydrolysis of vasoactive peptides and PACAP(1-27) by IGS5 polypeptide (HPLC); type: biochemical; details: for % Hydrolysis by IGS5 Polypeptide: 0.5 μM substrate, 2 h, 37° C.
# T1 construct: made in house; host or cells: Spodoptera frugiperda Sf9 (baculovirus IGBV73)
# T1 sequence (Q495T6 with tags, fused parts or gaps V306M): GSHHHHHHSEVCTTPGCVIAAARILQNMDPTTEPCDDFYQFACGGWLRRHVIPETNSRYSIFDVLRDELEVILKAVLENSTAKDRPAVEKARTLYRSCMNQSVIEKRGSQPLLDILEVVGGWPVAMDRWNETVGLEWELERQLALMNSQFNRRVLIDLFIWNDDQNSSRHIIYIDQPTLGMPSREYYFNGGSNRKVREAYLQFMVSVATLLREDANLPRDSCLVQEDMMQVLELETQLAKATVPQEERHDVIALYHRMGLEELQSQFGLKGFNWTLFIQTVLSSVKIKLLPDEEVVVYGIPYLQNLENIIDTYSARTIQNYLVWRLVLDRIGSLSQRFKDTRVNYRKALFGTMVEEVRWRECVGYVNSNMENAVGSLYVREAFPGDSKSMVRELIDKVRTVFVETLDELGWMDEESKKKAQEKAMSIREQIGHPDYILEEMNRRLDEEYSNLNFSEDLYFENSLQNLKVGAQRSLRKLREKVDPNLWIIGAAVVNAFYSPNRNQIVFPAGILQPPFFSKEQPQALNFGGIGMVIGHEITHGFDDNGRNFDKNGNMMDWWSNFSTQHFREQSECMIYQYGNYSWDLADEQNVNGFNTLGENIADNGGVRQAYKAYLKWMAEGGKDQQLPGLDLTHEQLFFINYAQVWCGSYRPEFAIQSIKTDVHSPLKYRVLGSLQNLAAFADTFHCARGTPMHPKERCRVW
# Experimental: (§1) The enzymatic activity of IGS5 polypeptides of the invention was tested with regard to the metabolism of biologically active peptides. In particular it was tested whether these IGS5 polypeptides may act on a variety of vasoactive peptides known in the state of the art e.g. such like atrial natriuretic peptide (ANP), bradykinin, big endothelin (Big ET-1), endothelin (ET-1), substance P and angiotensin-1. In the context of the present invention in particular it was tested whether the IGS5 ectodomain, which is a novel human metalloprotease, hydrolyzes said vasoactive peptides. For comparison the assay was also performed for a known member of the metalloprotease family which was described earlier as soluble secreted endopeptidase (SEP) by Ikeda, Emoto et al. (J. Biol. Chem., Vol. 274 (1999): pp. 32469-32477). Furthermore, it was tested whether the activity of IGS5 to convert a Big-ET-1 analogue (the so-called 17 aa Big-ET) may be inhibited by reference compounds that are used to determine the inhibition properties with regard to enzymes having ECE and/or NEP-characteristics. […] It was then checked whether the activity of IGS5 to convert PACAP(1-27) may be inhibited by a compound known to be a IGS5 inhibitor. The compound used to test the inhibition of IGS5-activity on PACAP(1-27) was the active metabolite of (3S,2′R)-3-{1-[2′-(ethoxycarbonyl)-4′-phenylbutyl]-cyclopentane-1-carbonylamino}-2,3,4,5-tetrahydro-2-oxo-1H-1-benzazepine-1-acetic acid (compound Ia-2 from WO 02/094176).
# The enzymatic reaction was subsequently terminated by heating to 95° C. for 5 min. After centrifugation (Heraeus Biofuge B, 3 min) the supernatant was subjected to HPLC
# (§2) In order to separate the remaining substrate from the cleavage products reversed phase HPLC technique was used with a CC 125/4 Nucleosil 300/5 C18 RP column and a CC 8/4 Nucleosil 100/5 C18 precolumn (commercially available from Macherey-Nagel, Duren, Germany). Thus, 60 μl of the reaction samples obtained in Example 7B were injected into the HPLC, and the column was eluted at a flow rate of 1 ml/min by applying the following gradient and solutions: […]
# (§3) Peptides were detected by absorbance at 214 nm (UV spectroscopy) and/or by fluorescence with an excitation wavelength of 328 nm and an emission wavelength of 393 nm.
# % Hydrolysis: For detection of substrate cleavage, the percentage of hydrolysis was calculated by directly comparing the substance peak areas in HPLC traces of the sample without addition of any IGS5 enzyme activity (blank) and of the samples with addition of IGS5 enzyme (sample). % hydrolysis was calculated on basis of the respective peak areas. % hydrolysis=100*(1−(Asample/Ablank))
# [2] = target: T2, SEP (soluble secreted endopeptidase) (Mus musculus, UniProt Q9JLI3); details: 100 μl assay volume; 10 μg partially purified SEP; 0.5 μM substrate; 12 h, 37° C.; cited from earlier work
# T2 sequence (Q9JLI3 1-765): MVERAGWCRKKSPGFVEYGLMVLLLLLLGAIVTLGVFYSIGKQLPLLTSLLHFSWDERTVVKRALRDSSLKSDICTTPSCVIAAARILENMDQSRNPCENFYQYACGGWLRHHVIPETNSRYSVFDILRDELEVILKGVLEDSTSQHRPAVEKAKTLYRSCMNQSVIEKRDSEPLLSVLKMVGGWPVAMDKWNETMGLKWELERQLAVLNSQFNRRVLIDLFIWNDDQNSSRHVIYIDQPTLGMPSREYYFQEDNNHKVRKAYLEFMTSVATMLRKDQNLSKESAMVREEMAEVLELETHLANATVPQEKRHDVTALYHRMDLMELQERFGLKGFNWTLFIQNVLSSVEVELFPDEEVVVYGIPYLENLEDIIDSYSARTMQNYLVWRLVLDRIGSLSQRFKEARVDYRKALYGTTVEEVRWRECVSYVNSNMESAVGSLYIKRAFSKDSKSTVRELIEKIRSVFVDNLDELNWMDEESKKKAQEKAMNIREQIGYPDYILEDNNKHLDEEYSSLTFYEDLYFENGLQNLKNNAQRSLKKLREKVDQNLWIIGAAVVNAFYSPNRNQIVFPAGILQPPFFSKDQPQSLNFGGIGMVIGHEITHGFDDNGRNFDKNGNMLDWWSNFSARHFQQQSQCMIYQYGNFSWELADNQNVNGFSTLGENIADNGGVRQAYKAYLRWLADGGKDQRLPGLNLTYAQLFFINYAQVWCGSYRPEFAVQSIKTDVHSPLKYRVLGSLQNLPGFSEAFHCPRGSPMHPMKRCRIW
# [3] = target: T1, IGS5 polypeptide (His6-tagged IGS5 ectodomain); assay: Enzyme inhibition assay: IGS5 conversion of the Big-ET-1 analogue 17 aa Big-ET (HPLC); type: biochemical; details: for Inhibition of IGS5 (result in words): conversion of Big-ET-1 analogue 17 aa Big-ET; for IC50: substrate 17 aa Big-ET, 60 min, 37° C., read-out: Inhibition of IGS5 polypeptide's activity to convert the Big-ET-1 analogue 17 aa Big-ET, IC50
# Experimental: as §1
# All test compounds were dissolved in DMSO at 10 mM and were further diluted with assay buffer.
# A quantity of 70 μl, of the assay buffer, of 10 μl enzyme working solution (10 μg/ml) and of 10 μl test compound solution were mixed in an Eppendorf vial and preincubated at 37° C. for 15 minutes. Then, 10 μl substrate stock solution was added and the reaction mixture was incubated at 37° C. for 60 minutes to allow for enzymatic hydrolysis. Subsequently the enzymatic reaction was terminated by heating at 95° C. for 5 minutes. After centrifugation (Heraeus Biofuge B, 3 min) the supernatant was subjected to HPLC analysis.
# as §2, §3
# % Inhibition: The increasing fluorescence signal of the HPLC-peak of the peptide with the unquenched Mca-fluorophor after hydrolysis was taken as the basis for any calculation. This signal was compared for the samples with and without inhibitor and % inhibition was calculated on basis of the respective peak areas. If non labeled peptide substrates were used, basis of the calculation of % inhibition was the peak area of the remaining undegraded peptide substrate for an inhibitory test compound containing sample (inhib) in comparison to samples containing only peptide without addition of any IGS5 enzyme activity (blank) and to samples containing peptide and enzyme without inhibitor (control) according to the following equation % inhib=100*((Ainhib−Acontrol)/(Ablank−Acontrol)) All samples were run in duplicate and mean values were used. A standard inhibitor (10 nM and 100 nM Phosphoramidon) and/or a solvent control (0.1%) was added to each assay run.
# [4] = 100 μl assay volume, 100 ng IGS5 polypeptide
Molecule,"% Hydrolysis by IGS5 Polypeptide [1, 4]",Hydrolysis by IGS5 in vitro (result in words) [1],"% Hydrolysis by SEP (Ikeda, Emoto et al., 1999) [2]",Inhibition of IGS5 (result in words) [3],IC50 [3],other results
"CC[C@H](C)[C@@H]1NC(=O)[C@H](CCCNC(=N)N)NC(=O)[C@H](CC(=O)O)NC(=O)[C@H](CCSC)NC(=O)[C@H](CCCNC(=N)N)NC(=O)CNC(=O)CNC(=O)[C@H](Cc2ccccc2)NC(=O)[C@@H](NC(=O)[C@H](CO)NC(=O)[C@H](CO)NC(=O)[C@H](CCCNC(=N)N)NC(=O)[C@H](CCCNC(=N)N)NC(=O)[C@H](CC(C)C)NC(=O)[C@@H](N)CO)CSSC[C@@H](C(=O)N[C@@H](CC(N)=O)C(=O)N[C@@H](CO)C(=O)N[C@@H](Cc2ccccc2)C(=O)N[C@@H](CCCNC(=N)N)C(=O)N[C@@H](Cc2ccc(O)cc2)C(=O)O)NC(=O)CNC(=O)[C@H](CC(C)C)NC(=O)CNC(=O)[C@H](CO)NC(=O)[C@H](CCC(N)=O)NC(=O)[C@H](C)NC(=O)CNC1=O [ANP, atrial natriuretic peptide]",5%,hydrolyze,>95%,–,–,% Hydrolysis by IGS5 Polypeptide ([1]; 500 ng IGS5 polypeptide): 80%
O=C(O)C(Cc1ccc2c(c1)oc1ccccc12)NCP(=O)(O)O (centres unmarked) [CGS-35066],–,–,–,not inhibited; also recorded: no inhibition,1300 nM,–
"CC[C@H](C)[C@H](NC(=O)[C@H](CC(=O)O)NC(=O)[C@H](CC(C)C)NC(=O)[C@H](Cc1c[nH]cn1)NC(=O)[C@@H]1CSSC[C@H](N)C(=O)N[C@@H](CO)C(=O)N[C@H]2CSSC[C@H](NC(=O)[C@H](CCC(=O)O)NC(=O)[C@H](CCCCN)NC(=O)[C@H](CC(=O)O)NC(=O)[C@H](CCSC)NC(=O)[C@H](CC(C)C)NC(=O)[C@H](CO)NC(=O)[C@H](CO)NC2=O)C(=O)N[C@@H](C(C)C)C(=O)N[C@@H](Cc2ccc(O)cc2)C(=O)N[C@@H](Cc2ccccc2)C(=O)N1)C(=O)N[C@H](C(=O)N[C@@H](Cc1c[nH]c2ccccc12)C(=O)O)[C@@H](C)CC [ET-1, endothelin]",<30%,hydrolyze,92%,–,–,–
CC(C)C[C@H](NP(=O)(O)O[C@@H]1O[C@@H](C)[C@H](O)[C@@H](O)[C@H]1O)C(=O)N[C@@H](Cc1c[nH]c2ccccc12)C(=O)O [Phosphoramidon],–,–,–,inhibited; also recorded: inhibition,18 nM,–
O=C(O)CNC(=O)C(CS)Cc1ccccc1 (centres unmarked) [Thiorphan],–,–,–,not efficiently inhibited; also recorded: no inhibition,> 1000 nM,–
Mca-Asp-Ile-Ala-Trp-Phe-Dpa-Thr-Pro-Glu-His-Val-Val-Pro-Tyr-Gly-Leu-Gly-COOH (Mca-DIAWF[Dpa]TPEHVVPYGLG-OH; SMILES CC[C@H](C)[C@H](NC(=O)[C@H](CC(=O)O)NC(=O)Cc1cc(=O)oc2cc(OC)ccc12)C(=O)N[C@@H](C)C(=O)N[C@@H](Cc1c[nH]c2ccccc12)C(=O)N[C@@H](Cc1ccccc1)C(=O)N[C@@H](CNc1ccc([N+](=O)[O-])cc1[N+](=O)[O-])C(=O)N[C@H](C(=O)N1CCC[C@H]1C(=O)N[C@@H](CCC(=O)O)C(=O)N[C@@H](Cc1c[nH]cn1)C(=O)N[C@H](C(=O)N[C@H](C(=O)N1CCC[C@H]1C(=O)N[C@@H](Cc1ccc(O)cc1)C(=O)NCC(=O)N[C@@H](CC(C)C)C(=O)NCC(=O)O)C(C)C)C(C)C)[C@@H](C)O) [17 aa Big ET 1],41%,–,–,–,–,–
"RPPGFSPFR [Bradykinin, bradykinin]",100%,–,–,–,–,% Hydrolysis by IGS5 Polypeptide ([1]; 10 ng IGS5 polypeptide): 62%
angiotensin-1 (DRVYIHPFHL) [Angiotensin 1],15*** %,–,>95%,–,–,Formation of angiotensin II on degradation by IGS5 [1]: ***degradation of angiotensin I does not result in formation of angiotensin II
big endothelin (CSCSSLMDKECVYFCHLDIIWVNTPEHVVPYGLGSPRS) [Big ET-1],–,hydrolyze,42%,–,–,–
substance P,100%,–,>95%,–,–,–
